The record followed here is PMC5298233, “Substrate-analogous inhibitors exert antimalarial action by targeting the Plasmodium lactate transporter PfFNT at nanomolar scale” (PLoS Pathogens, 2017).

The target in this assay is PfFNT G107S (Plasmodium falciparum, UniProt O77389, G107S). As to the kind of experiment: cell-based. The settings on record: for IC50: read-out: IC50 (PfFNT G107S / yeast).

Turning to `CC(=O)C=C(O)C(F)(F)C(F)(F)F` [Pharmacophore, 5,5,6,6,6-pentafluoro-4-hydroxyhex-3-en-2-one], the IC50 turned out to be 8.1 µM. Moreover, for the setting “compared with BH-296”, the “relative efficiency in blocking PfFNT G107S (mutant versus wildtype)” value was “four times better relative efficiency than BH-296”.
For `COc1ccc2c(c1)OC(O)(C(F)(F)C(F)(F)F)CC2=O` (stereo not shown) [MMV007839], the IC50 stood at 21 µM.
Consider `COc1ccc(C(=O)/C=C(\O)C(F)(F)C(F)(F)F)cc1` [BH-296], for which the IC50 is 2.3 µM.
